From PubChem BioAssay (NCI)
Values joined by “and” are separate entries in the source; they are usually repeats but may differ in a detail not shown here. Equal entries are not always repeated.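 All cell lines were grown in 96-well plates and treated with compound for 48 hours. Here, GI50 denotes the concentration required for 50% inhibition of growth. The concentration for full growth arrest is given as TGI.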

Key:
Assay in all cases: growth of human tumour cells (NCI), 48 h
OVCAR-5 ovarian = tested on: OVCAR-5 ovarian
SK-MEL-2 melanoma = tested on: SK-MEL-2 melanoma
U251 CNS = tested on: U251 CNS
UACC-62 melanoma = tested on: UACC-62 melanoma
SF-295 CNS = tested on: SF-295 CNS
NCI/ADR-RES ovarian = tested on: NCI/ADR-RES ovarian
RPMI-8226 leukemia = tested on: RPMI-8226 leukemia
CCRF-CEM leukemia = tested on: CCRF-CEM leukemia
HT29 colon = tested on: HT29 colon
SNB-19 CNS = tested on: SNB-19 CNS

Row | SMILES | GI50 (OVCAR-5 ovarian) [µM] | TGI (OVCAR-5 ovarian) [µM] | GI50 (SK-MEL-2 melanoma) [µM] | TGI (SK-MEL-2 melanoma) [µM] | GI50 (U251 CNS) [µM] | TGI (U251 CNS) [µM] | GI50 (UACC-62 melanoma) [µM] | TGI (UACC-62 melanoma) [µM] | GI50 (SF-295 CNS) | TGI (SF-295 CNS) [µM] | GI50 (NCI/ADR-RES ovarian) [µM] | TGI (NCI/ADR-RES ovarian) [µM] | GI50 (RPMI-8226 leukemia) [µM] | TGI (RPMI-8226 leukemia) [µM] | GI50 (CCRF-CEM leukemia) [µM] | TGI (CCRF-CEM leukemia) [µM] | GI50 (HT29 colon) [µM] | TGI (HT29 colon) [µM] | GI50 (SNB-19 CNS) [µM] | TGI (SNB-19 CNS) [µM]
1 | COc1ccc(/C=C2\N=C3SC=C(N)N3C2=O)cc1 | 2.13 | 12 | 1.02 | 2.75 | 1.32 | 5.49 | 1.07 | 2.76 | 0.642 µM | 14.2 | 2.76 | 18.6 | 0.492 | 2.99 | 0.4 | 4.33 | 1.21 | 3.37 | 3.32 | 17
2 | C#Cc1ccc(NC(=O)c2ccc(/C=C/C(=O)c3nccn3C)cc2)cc1 | 0.488 | 1.19 | 1.63 | 6.68 | 0.347 | 0.757 | 0.481 | 1.12 | 0.537 µM | 1.25 | 0.77 | 25 | 0.115 | 0.672 | 0.486 | 1.59 | 0.54 | 1.32 | 0.512 | 1.35
3 | CN(Cc1cnc2nc(N)nc(N)c2n1)c1ccc(C(=O)NC(CCC(=O)O)C(=O)O)cc1 (configuration not stated) | 0.668 | > 100 |  | > 100 | 0.435 | > 100 | 0.145 | > 100 | 0.175 µM | 36.5 | 0.0722 | > 100 | 0.629 | > 100 | 0.056 | > 100 | 0.0564 | > 100 |  | > 100
4 | O=c1[nH]c(-c2ccc(C(F)(F)F)cc2)nc2c1CSCC2 | 79.9 | > 100 | 35.6 | > 93.2 | 17.9 | > 89.6 | > 100 | > 100 | 52.7 µM | > 100 | 35.8 | > 100 | > 100 | > 100 | > 100 | > 100 | > 76.8 | > 100 | 47.3 | > 100
5 | CC/C=C\CCC/C=C1/C(=O)C=C[C@@H]1C/C=C\CCCC(=O)O | 4.85 | 15.3 | 4.82 | 18.3 | 3.7 | 13.6 | 2.22 | 4.93 | 2.87 µM | 8.13 | 2.96 | 11.8 | 3.28 | 11 | 2.84 | 16.2 | 2.5 | 5.27 | 5.45 | 20
6 | COc1ccc(/C=C2\COc3ccc(-c4ccccc4)cc3C2=O)cc1O | 4.13 | 14.7 | 2.17 | 6.1 | 1.83 | 4.27 | 3.59 | 18.1 | 4.4 µM | 21.7 | 3.39 | 14 | 3.61 | > 100 | 2.03 | > 100 | 1.46 | 3.85 | 3.38 | 17.2
7 | COc1ccc(NC(=O)c2cc(OC)c(OC)c(OC)c2)cc1O | 40.1 | > 100 | 2.58 | > 100 | 3.71 | > 100 | 2.66 | > 100 | 2.78 µM | > 100 | 1.13 | > 100 | 5.93 | > 100 | 4.13 | > 100 | 3.21 | 11.6 | 4.73 | > 100
8 | Oc1ccc2ccccc2c1N=Nc1ccccc1 |  | > 100 |  | > 100 |  | > 100 |  | > 100 | 39.6 µM and > 90.3 µM | > 100 |  | > 100 |  | > 100 |  | > 100 |  | > 100 |  | > 100
9 | Oc1ccccc1-n1c(-c2ccccc2)ccc1-c1ccccc1 | 15.2 | 48.7 | 4.63 | 19.4 | 7.66 | 20.6 | 5.43 | > 100 | 6.6 µM | 21 | 5.13 | 23.1 | 3.71 | 17.9 | 4.77 | 71.1 | 2.22 | 11 | 12.7 | 34.3
10 | Cn1ccnc1C(=O)/C=C/c1ccc(C(=O)Nc2nc3ccccc3[nH]2)cc1 | 5.6 | > 25 | > 25 | > 25 | 0.916 | > 25 | 6.07 | > 25 | > 25 µM | > 25 | 4.95 | > 25 | 0.81 | > 25 | 1.28 | > 25 | 1.01 | > 25 | 9.75 | > 25
11 | O=C1c2cc(CCl)sc2C(=O)c2ccsc21 |  | 3.31 |  | 0.42 |  | 1.14 |  | 0.319 |  | 0.245 |  | 0.468 |  | 0.558 |  | 1.22 |  | 2.56 |  | 0.527
12 | COc1ccc2c(c1)OC13Oc4cc(OC)ccc4C=C1CCCC3=C2 | > 100 | > 100 | > 100 | > 100 | > 100 | > 100 | 4.5 | > 100 | > 100 µM | > 100 | > 100 | > 100 | 6.12 | > 100 | 5.88 | > 100 | > 100 | > 100 | > 100 | > 100
13 | C[C@@H]1CC[C@@]2(OC1)O[C@H]1C[C@H]3[C@@H]4CC=C5C[C@@H](O[C@@H]6O[C@H](CO)[C@@H](O[C@@H]7O[C@@H](CO)[C@H](O)[C@H]7O)[C@H](O)[C@H]6O[C@@H]6O[C@@H](C)[C@H](O)[C@@H](O)[C@H]6O)CC[C@]5(C)[C@H]4CC[C@]3(C)[C@H]1[C@@H]2C | 1.29 | 2.56 | 1.67 | 3.04 | 1.01 | 2.17 | 0.909 | 2.11 | 1.71 µM | 3.11 | 1.43 | 2.78 | 1.09 | 2.4 | 1.1 | 2.6 | 1.06 | 2.46 | 1.21 | 2.45
14 | C[Se]C(=O)CC1=C2C=C(F)C=CC2/C(=C\c2ccc(S(C)=O)cc2)C1C (configuration not stated) | 0.114 | 1.49 | 0.432 | 3.04 | < 0.0181 | 1.43 | 0.41 | 2.3 | < 0.0156 µM | 0.0465 | 0.0776 | 3.96 | 2.31 | 6.15 | 0.208 | > 20.6 | < 0.0318 | > 100 | 0.223 | 0.767
15 | Oc1c(CN2CCCC2)cc(COCc2ccccc2)c2cccnc12 | 4.1 | 21.2 | 4.68 | 20.1 | 2.07 | 13.3 | 1.81 | 7.7 | 2.86 µM | 13.7 | 0.152 | 0.761 | 3.84 | 19.4 | 1.43 | 15.4 | 10.4 | 26.5 | 3.53 | 92.4
16 | C[C@H]1[C@@H](OCC(CO[C@H]2O[C@@H]3O[C@@]4(C)CC[C@H]5[C@H](C)CC[C@@H]([C@H]2C)[C@@]35OO4)=NOCC(=O)O)OC2O[C@@]3(C)CC[C@H]4[C@H](C)CC[C@@H]1[C@@]24OO3 (some centres not stated) | 0.497 | 30.3 | 0.346 | 14.8 | < 0.0114 | 14 | 0.0336 | 15.5 | 0.1 µM | 17.3 | 0.525 | 16.4 | < 0.01 |  | < 0.01 | 12.5 | < 0.01 | 15 | 0.613 | 18.7
17 | CC#CC(=O)N1CCC[C@H]1c1nc(-c2ccc(C(=O)Nc3ccccn3)cc2)c2c(N)nccn12 | > 100 | > 100 | > 88.4 | > 100 | > 92.4 | > 100 | 34.8 | > 100 | > 86.1 µM | > 100 | > 100 | > 100 | 59 | > 100 | > 82.1 | > 100 | 55.1 | > 100 | > 79.9 | > 100
18 | C=C1C(C)C2C(Cc3ccccc3)NC(=O)C23C(OC(C)=O)/C=C/C(C)(O)CC(C)C/C=C/C3C1O (configuration not stated) |  | > 100 |  | 76.5 |  | 18.4 |  | > 91.8 |  | 33.2 |  | > 100 |  | 71.2 |  | 85 |  | > 100 |  | 20.7
19 | NC(CSC(c1ccccc1)(c1ccccc1)c1ccc2ccccc2c1)C(=O)O (configuration not stated) | 0.323 | 16.9 | 1.29 | 30 | 0.0408 | 12.1 | 0.0628 | 13.6 | 0.0246 µM | 2.64 | 0.989 | 3.64 | 0.0327 |  | 0.0372 | > 39.4 | 0.2 | > 100 | 0.066 | 17.3
